# Marks after values point to notes of the source that are not given here.
# Legend:
# [1] = target: EP2 subtype of the human PGE2 receptor (hEP2 receptor) (Homo sapiens, UniProt P43116); experiment: cAMP antagonism test, human prostaglandin E2 (subtype EP2) receptor signal; assay type: cell-based
# How it was run: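 Cells (625000 cells/ml, mixed with cAMP-d2) were preincubated 20 min at RT with compound ([…]). They were then stimulated 60 min at RT with a 3× PGE2 solution (1.5 nM) in PBS-IBMX and lysed for 20 min. cAMP was read by HTRF as the 665/620 nm ratio ×10000, with antagonism seen as a rise in FRET signal.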
# [2] = tested on: fertility of the female rat; experiment: Single administration of EP2 receptor antagonists and COX inhibitors alone or in combination, fertility of the rat (implantation sites); assay type: in vivo, female Han Wistar rats
# Protocol: 6. Effect of a Single Administration of EP2 Receptor Antagonists and COX Inhibitors Alone or in Combination on the Fertility of the Rat
# In the experiments below, female Han Wistar rats having a weight of 200-270 g were used. The animals were kept in Makrolon cages in rooms with controlled lighting (12 hours of darkness; 12 hours of light), fed with a standard diet and provided with water ad libitum.
# EP2 receptor antagonists were dissolved in benzyl benzoate/castor oil (1+4 v/v), and the dose was administered in a volume of 1 ml/kg of body weight s.c. Optionally, EP2 receptor antagonists were also administered orally in the same vehicle as the COX inhibitors (see below). […]
# The COX inhibitors were suspended in a carrier liquid (85 mg of Myrj®53 polyoxyl(50)stearate; CAS No. 9004-99-3) in 100 ml of 0.9% w/v NaCl solution), and the dose corresponding to the treatment group was administered in a volume of 2 ml/kg of body weight.
# Prior to the start of the experiment, two cycles were observed using vaginal swabs. Only animals having a regular 4-day cycle were used in the experiment. The animals were randomized to the treatment groups.
# The animals were treated once in the proestrus, the day in the cycle when the LH peak occurs in the evening, with the test substances either alone or in combination. On the evening of the proestrus, the female animals mated with a male rat. Successive mating was confirmed by detection of vaginal sperms in the vaginal swab the next morning. The effect on fertility was determined 9-15 days after mating by the number of implantation sites of the animals. […]
# [3] = Table 6.4, single administration in proestrus, E16 4 mg/animal, 17:00, data of n = 4 animals
# [4] = Table 6.5, single administration in proestrus, E16 0.25 mg/animal, 17:00
# [5] = Table 6.5, single administration in proestrus, E16 0.5 mg/animal, 17:00
# [6] = Table 6.5, single administration in proestrus, E16 1 mg/animal, 17:00
# [7] = Table 6.5, single administration in proestrus, E16 2 mg/animal, 17:00, data of n = 4 animals
# [8] = Table 6.5, single administration in proestrus, E16 4 mg/animal, 17:00
# [9] = proestrus, oral administration of EP2 receptor antagonist 2 mg/animal, divided to 16:00 and 17:00
# [10] = single administration in proestrus, E16 1 mg/animal, 16:00
# [11] = single administration in proestrus, E16 2 mg/animal, 16:00
# [12] = single administration in proestrus, E16 4 mg/animal, 7:00
# [13] = single administration in proestrus, E16 4 mg/animal, 13:00, data of n = 5 animals
# [14] = single administration in proestrus, E16 4 mg/animal, 16:00
# [15] = single administration in proestrus, E16 8 mg/animal, 16:00, data of n = 5 animals
# [16] = single administration in proestrus, E161 2 mg/animal, 18:00
# [17] = Table 6.4, single administration in proestrus, Meloxicam 0.25 mg/animal, 17:00, data of n = 5 animals
# [18] = Table 6.4, single administration in proestrus, Meloxicam 0.5 mg/animal, 17:00
# [19] = Table 6.4, single administration in proestrus, Meloxicam 1 mg/animal, 17:00
# [20] = Table 6.4, single administration in proestrus, Meloxicam 2 mg/animal, 17:00, data of n = 5 animals
# [21] = Table 6.5, single administration in proestrus, Meloxicam 2 mg/animal, 17:00, data of n = 5 animals
# Sequence of EP2 subtype of the human PGE2 receptor (hEP2 receptor) (P43116 whole entry): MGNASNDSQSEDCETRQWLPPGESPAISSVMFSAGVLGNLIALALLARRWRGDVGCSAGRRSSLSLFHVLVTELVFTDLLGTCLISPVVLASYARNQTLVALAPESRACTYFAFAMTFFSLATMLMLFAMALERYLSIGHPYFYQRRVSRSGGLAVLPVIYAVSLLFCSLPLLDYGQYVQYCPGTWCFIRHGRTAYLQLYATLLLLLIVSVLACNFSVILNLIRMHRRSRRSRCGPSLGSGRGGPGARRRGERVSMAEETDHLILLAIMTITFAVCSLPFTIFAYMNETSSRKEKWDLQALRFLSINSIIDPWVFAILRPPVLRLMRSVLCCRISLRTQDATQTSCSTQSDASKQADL
structure (smiles),measurement,setting,value
"COCCNC(=O)c1ccc2nn(CC3CCN(C(=O)c4ccc(Oc5ccc(C(F)(F)F)cc5)cc4)CC3)cc2c1C [Example E16, N-(2-methoxyethyl)-4-methyl-2-[(1-{4-[4-(trifluoromethyl)phenoxy]benzoyl}piperidin-4-yl)methyl]-2H-indazole-5-carboxamide]",IC50,[1],> 50 nM
same,Absolute implantations number of 6 animals,[2]; [3],22**
same,Implantations per animal (mean ± SD),[2]; [3],5.5 ± 5.4
same,Absolute implantations number of 6 animals,[2]; [4],78
same,Implantations per animal (mean ± SD),[2]; [4],13 ± 2.3
same,Absolute implantations number of 6 animals,[2]; [5],60
same,Implantations per animal (mean ± SD),[2]; [5],10 ± 2.8
same,Absolute implantations number of 6 animals,[2]; [6],42
same,Implantations per animal (mean ± SD),[2]; [6],7 ± 5.4
same,Absolute implantations number of 6 animals,[2]; [7],30**
same,Implantations per animal (mean ± SD),[2]; [7],7.5 ± 1.7
same,Absolute implantations number of 6 animals,[2]; [8],32
same,Implantations per animal (mean ± SD),[2]; [8],5.3 ± 4.5
same,Absolute implantations number of 6 animals,[2]; [9],63
same,Implantations per animal (mean ± SD),[2]; [9],10.5 ± 1.5
same,Absolute implantations number of 6 animals,[2]; [10],62
same,Implantations per animal (mean ± SD),[2]; [10],10.3 ± 2.5
same,Absolute implantations number of 6 animals,[2]; [11],71
same,Implantations per animal (mean ± SD),[2]; [11],11.8 ± 2.1
same,Absolute implantations number of 6 animals,[2]; [12],54
same,Implantations per animal (mean ± SD),[2]; [12],9.0 ± 3.4
same,Absolute implantations number of 6 animals,[2]; [13],49*
same,Implantations per animal (mean ± SD),[2]; [13],8.2 ± 3.1
same,Absolute implantations number of 6 animals,[2]; [14],50
same,Implantations per animal (mean ± SD),[2]; [14],8.3 ± 3.4
same,Absolute implantations number of 6 animals,[2]; [15],43*
same,Implantations per animal (mean ± SD),[2]; [15],8.6 ± 2.8
"COCCNC(=O)c1ccc2nn(CC3CCN(C(=O)c4ccc(Oc5ccc(C(F)(F)F)cn5)cc4)CC3)cc2c1C [Example E161, N-(2-methoxyethyl)-4-methyl-2-{[1-(4-{[5-(trifluoromethyl)pyridin-2-yl]oxy}benzoyl)piperidin-4-yl]methyl}-2H-indazole-5-carboxamide]",IC50,[1],> 50 nM
same,Absolute implantations number of 6 animals,[2]; [9],69
same,Implantations per animal (mean ± SD),[2]; [9],11.5 ± 3.1
same,Absolute implantations number of 6 animals,[2]; [16],55
same,Implantations per animal (mean ± SD),[2]; [16],9.0 ± 3.4
"COCCNC(=O)c1ccc2nn(CC3CCN(C(=O)c4ccc(-c5ccc(F)cc5)c(C)c4)CC3)cc2c1C [Example E203, 2-({1-[(4′-fluoro-2-methylbiphenyl-4-yl)carbonyl]piperidin-4-yl}methyl)-N-(2-methoxyethyl)-4-methyl-2H-indazole-5-carboxamide]",IC50,[1],> 50 nM
"COCCNC(=O)c1ccc2nn(CC3CCN(C(=O)c4ccc(-c5cc(F)cc(F)c5)c(C)c4)CC3)cc2c1C [Example E204, 2-({1-[(3′,5′-difluoro-2-methylbiphenyl-4-yl)carbonyl]piperidin-4-yl}methyl)-N-(2-methoxyethyl)-4-methyl-2H-indazole-5-carboxamide]",IC50,[1],> 50 nM
"COCCNC(=O)c1ccc2nn(CC3CCN(C(=O)c4ccc(-c5cccnc5)c(C)c4)CC3)cc2c1C [Example E205, N-(2-methoxyethyl)-4-methyl-2-({1-[3-methyl-4-(3-pyridyl)benzoyl]piperidin-4-yl}-methyl)-2H-indazole-5-carboxamide]",IC50,[1],> 50 nM
"COCCNC(=O)c1ccc2nn(CC3CCN(C(=O)c4ccc(-c5ccncc5)c(C)c4)CC3)cc2c1C [Example E206, N-(2-methoxyethyl)-4-methyl-2-({1-[3-methyl-4-(4-pyridyl)benzoyl]piperidin-4-yl}-methyl)-2H-indazole-5-carboxamide]",IC50,[1],> 50 nM
"COCCNC(=O)c1ccc2nn(CC3CCN(C(=O)c4ccc(-c5ccccc5)c(C)c4)CC3)cc2c1C [Example E207, N-(2-methoxyethyl)-4-methyl-2-({1-[(2-methylbiphenyl-4-yl)carbonyl]piperidin-4-yl}-methyl)-2H-indazole-5-carboxamide]",IC50,[1],> 50 nM
"Cc1cnc(NC(=O)C2=C(O)c3ccccc3S(=O)(=O)N2C)s1 [Meloxicam, meloxicam, reference compound]",Absolute implantations number of 6 animals,[2]; [17],32*
same,Implantations per animal (mean ± SD),[2]; [17],6.4 ± 5.9
same,Absolute implantations number of 6 animals,[2]; [18],70
same,Implantations per animal (mean ± SD),[2]; [18],11.7 ± 6.4
same,Absolute implantations number of 6 animals,[2]; [19],66
same,Implantations per animal (mean ± SD),[2]; [19],11 ± 5.5
same,Absolute implantations number of 6 animals,[2]; [20],54*
same,Implantations per animal (mean ± SD),[2]; [20],10.8 ± 4.4
same,Absolute implantations number of 6 animals,[2]; [21],63*
same,Implantations per animal (mean ± SD),[2]; [21],12.6 ± 3.4

# From US9655887B2, “Pharmaceutical composition and the use thereof, and application regime of said pharmaceutical composition for on-demand contraception” (BAYER PHARMA AKTIENGESELLSCHAFT, priority 2013, dated 2017)
